These compounds were tested against T1, Human complement C1s enzyme (Homo sapiens, UniProt P09871) (assay: Human C1s enzyme assay). Conditions: human complement C1s enzyme 1.16 nM, substrate Z-L-Lys-SBzl, A405; read-out: IC50 (Stars).
T1 construct: purified from human serum, Complement Technology, Inc; purchased Complement Technology, Inc; host or cells: human serum (plasma-derived native protein)
T1 sequence (P09871 438-688 limits assumed): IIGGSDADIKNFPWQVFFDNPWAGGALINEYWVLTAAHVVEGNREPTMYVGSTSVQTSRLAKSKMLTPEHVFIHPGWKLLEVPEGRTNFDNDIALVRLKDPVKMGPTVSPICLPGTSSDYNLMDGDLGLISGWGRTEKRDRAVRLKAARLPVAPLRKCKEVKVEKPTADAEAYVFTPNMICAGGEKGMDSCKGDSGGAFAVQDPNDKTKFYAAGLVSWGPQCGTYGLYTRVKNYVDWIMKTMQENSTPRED
T1 sequence (P09871 16-437 partner limits assumed): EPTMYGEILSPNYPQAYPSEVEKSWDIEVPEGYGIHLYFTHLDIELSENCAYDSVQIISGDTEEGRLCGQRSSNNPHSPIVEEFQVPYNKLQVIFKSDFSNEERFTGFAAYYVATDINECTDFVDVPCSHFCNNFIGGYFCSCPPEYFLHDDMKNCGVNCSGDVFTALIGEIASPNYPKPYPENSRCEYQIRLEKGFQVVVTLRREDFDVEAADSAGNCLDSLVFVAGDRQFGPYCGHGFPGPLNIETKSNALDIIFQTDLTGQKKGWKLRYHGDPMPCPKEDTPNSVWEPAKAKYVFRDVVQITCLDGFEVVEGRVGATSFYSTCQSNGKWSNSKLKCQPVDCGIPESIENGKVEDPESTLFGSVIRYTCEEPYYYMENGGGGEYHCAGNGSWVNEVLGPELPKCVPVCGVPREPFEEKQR
Assay type: biochemical
How it was run: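 Thioesterase activity followed colorimetrically (DTNB, A405, 30-s reads) using 100 μM Z-L-Lys-SBzl substrate. Enzyme, human serum-derived C1s at 1.16 nM final, was incubated with test compound for 5 min, room temperature, pH 7.5 Tris buffer with 1 M NaCl. Rate-versus-concentration data fitted by nonlinear regression for IC50.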

Compound | IC50 [µM]
O=C(Cn1c(-c2ccccc2)ncc(NCCCCc2ccc(Oc3ccccc3)cc2)c1=O)NCc1cc2cnccc2[nH]1 [Compound 21, N-((1H-pyrrolo[3,2-c]pyridin-2-yl)methyl)-2-(6-oxo-5-((4-(4-phenoxyphenyl)butyl)amino)-2-phenylpyrimidin-1(6H)-yl)acetamide] | < 0.1
O=C(Cn1c(-c2ccccc2)ncc(NCCCc2ccc(F)cc2)c1=O)NCc1cc2cnccc2[nH]1 [Compound 46, N-((1H-pyrrolo[3,2-c]pyridin-2-yl)methyl)-2-(5-((3-(4-fluorophenyl)propyl)amino)-6-oxo-2-phenylpyrimidin-1(6H)-yl)acetamide] | < 0.1
N#Cc1ccc(CCNc2cnc(-c3ccccc3)n(CC(=O)NCc3cc4cnccc4[nH]3)c2=O)cc1 [Compound 28, N-((1H-pyrrolo[3,2-c]pyridine-2-yl)methyl)-2-(5-((4-cyanophenethyl)amino)-6-oxo-2-phenylpyrimidin-1(6H)-yl)acetamide] | < 0.1
O=C(Cn1c(-c2ccccc2)ncc(NC(=O)c2n[nH]c(-c3ccccc3)n2)c1=O)NCc1cc2cnccc2[nH]1 [Compound 221, N-(1-(2-(((1H-pyrrolo[3,2-c]pyridine-2-yl)methyl)amino)-2-oxoethyl)-6-oxo-2-phenyl-1,6-dihydropyrimidin-5-yl)-5-phenyl-1H-1,2,4-triazole-3-carboxamide] | < 0.1
O=C(Cn1c(-c2ccccc2)cnc(NCCCc2ccccc2)c1=O)N[C@@H](CO)c1cc2cnccc2[nH]1 [Compound 14, (R)-N-(2-hydroxy-1-(1H-pyr-rolo[3,2-c]pyridin-2-yl)ethyl)-2-(2-oxo-6-phenyl-3-((3-phen-ylpropyl)amino)pyrazin-1(2H)-yl)acetamide] | > 1
O=C(Cn1c(-c2ccccc2)ncc(NC(=O)c2ccc(Oc3ccc(F)cc3)cc2)c1=O)NCc1cc2cnccc2[nH]1 [Compound 52, N-(1-(2-(((1H-pyrrolo[3,2-c]pyridin-2-yl)methyl)amino)-2-oxoethyl)-6-oxo-2-phenyl-1,6-dihydropyrimidin-5-yl)-4-(4-fluorophenoxy)benzamide] | < 0.1
NS(=O)(=O)COc1ccc(-c2ncc(NCCCc3ccccc3)c(=O)n2CC(=O)NCc2cc3cnccc3[nH]2)cc1 [Compound 67, N-((1H-pyrrolo[3,2-c]pyridine-2-yl)methyl)-2-(6-oxo-5-((3-phenylpropyl)amino)-2-(4-(sulfamoylmethoxy)phenyl)pyrimidin-1(6H)-yl)acetamide] | < 0.1
C[C@H](NC(=O)Cn1c(-c2ccccc2)ncc(NCCCc2ccccc2)c1=O)c1cc2cnccc2[nH]1 [Compound 9, (S)—N-(1-(1H-pyrrolo[3,2-c]pyridin-2-yl)ethyl)-2-(6-oxo-2-phenyl-5-((3-phenylpropyl)amino)pyrimidin-1(6H)-yl)acetamide] | > 1
COc1ccc(CCCNc2cnc(-c3ccccc3)n(CC(=O)NCc3cc4cnccc4[nH]3)c2=O)cc1 [Compound 45, N-((1H-pyrrolo[3,2-c]pyridin-2-yl)methyl)-2-(5-((3-(4-methoxyphenyl)propyl)amino)-6-oxo-2-phenylpyrimidin-1(6H)-yl)acetamide] | < 0.1
O=C(Cn1c(-c2ccccc2)ncc(NC(=O)c2ccc(Oc3ccccc3Cl)cc2)c1=O)NCc1cc2cnccc2[nH]1 [Compound 72, N-(1-(2-(((1H-pyrrolo[3,2-c]pyridin-2-yl)methyl)amino)-2-oxoethyl)-6-oxo-2-phenyl-1,6-dihydropyrimidin-5-yl)-4-(2-chlorophenoxy)benzamide] | < 0.1
O=C(Cn1c(-c2ccccc2)ncc(NC(=O)c2cccc(-c3ccco3)c2)c1=O)NCc1cc2cnccc2[nH]1 [Compound 102, N-(1-(2-(((1H-pyrrolo[3,2-c]pyridin-2-yl)methyl)amino)-2-oxoethyl)-6-oxo-2-phenyl-1,6-dihydropyrimidin-5-yl)-3-(furan-2-yl)benzamide] | < 0.1
O=C(Cn1c(-c2ccccc2)ncc(NC(=O)c2cccc(-c3nccs3)c2)c1=O)NCc1cc2cnccc2[nH]1 [Compound 167, N-(1-(2-(((1H-pyrrolo[3,2-c]pyridine-2-yl)methyl)amino)-2-oxoethyl)-6-oxo-2-phenyl-1,6-dihydropyrimidin-5-yl)-3-(thiazol-2-yl)benzamide] | < 0.1
O=C(Cn1c(-c2ccccc2)ncc(NCCCc2ccc(C3CC3)cc2)c1=O)NCc1cc2cnccc2[nH]1 [Compound 77, N-((1H-pyrrolo[3,2-c]pyridin-2-yl)methyl)-2-(5-((3-(4-cyclo-propylphenyl)propyl)amino)-6-oxo-2-phenylpyrimidin-1(6H)-yl)acetamide] | < 0.1
COc1ccc(-c2ccc(C(=O)Nc3cnc(-c4ccccc4)n(CC(=O)NCc4cc5cnccc5[nH]4)c3=O)cc2)cc1 [Compound 98, N-(1-(2-(((1H-pyrrolo[3,2-c]pyridin-2-yl)methyl)amino)-2-oxoethyl)-6-oxo-2-phenyl-1,6-dihydropyrimidin-5-yl)-4′-methoxy-[1,1′-biphenyl]-4-carboxamide] | < 0.1

Continued, values first:

IC50 [µM] | Compound
0.1 to 1 | C[C@@H](Nc1cnc(N2CCCCC2)n(CC(=O)NCc2cc3cnccc3[nH]2)c1=O)c1coc(-c2ccccc2F)n1 [Compound 475, (R)—N-((1H-Pyrrolo[3,2-c]pyridine-2-yl)methyl)-2-(5-((1-(2-(2-fluorophenyl)oxazol-4-yl)ethyl)amino)-6-oxo-2-(piperidin-1-yl)pyrimidin-1(6H)-yl) acetamide]
< 0.1 | O=C(Cn1c(N2CCC(F)(F)C2)ncc(NCc2ccc3oc4ccccc4c3c2)c1=O)NCc1c[nH]c2ccncc12 [Compound 271, N-((1H-pyrrolo[3,2-c]pyridin-3-yl)methyl)-2-(5-((dibenzo [b,d]furan-2-ylmethyl)amino)-2-(3,3-difluoropyrrolidin-1-yl)-6-oxopyrimidin-1(6H)-yl)acet-amide]
0.1 to 1 | C[C@@H](Nc1cnc(N2CCC(O)C2)n(CC(=O)NCc2cc3cnccc3[nH]2)c1=O)c1ccc2oc3ccccc3c2c1 (stereo partly drawn) [Compound 369, N-((1H-pyrrolo[3,2-c]pyridin-2-yl)methyl)-2-(5-(((R)-1-(dibenzo[b,d]furan-2-yl)ethyl)-amino)-2-(3-hydroxypyrroli-din-1-yl)-6-oxopyrimidin-1(6H)-yl)acetamide]
< 0.1 | C[C@H](Nc1cnc(-c2cccnc2)n(CC(=O)NCc2cc3cnccc3[nH]2)c1=O)c1ccc2oc3ccccc3c2c1 [Compound 274, (S)-N-((1H-pyrrolo[3,2-c]pyr-idin-2-yl)methyl)-2-(5-((1-(dibenzo[b,d]furan-2-yl)ethyl)-amino)-6-oxo-2-(pyridin-3-yl)-pyrimidin-1(6H)-yl)acetamide]
0.1 to 1 | C[C@@H]1CN(c2ncc(N[C@H](C)c3ccc4oc5ccccc5c4c3)c(=O)n2CC(=O)NCc2cc3cnccc3[nH]2)CCO1 [Compound 304, N-((1H-pyrrolo[3,2-c]pyridin-2-yl)methyl)-2-(5-(((R)-1-(dibenzo[b,d]furan-2-yl)ethyl)-amino)-2-((R)-2-methylmorph-olino)-6-oxopyrimidin-1(6H)-yl)acetamide]
0.1 to 1 | C[C@@H]1CN(c2ncc(N[C@H](C)c3ccc4oc5ccccc5c4c3)c(=O)n2CC(=O)NCc2cc3cnccc3[nH]2)C[C@H](C)O1 [Compound 305, N-((1H-pyrrolo[3,2-c]pyridin-2-yl)methyl)-2-(5-(((R)-1-(dibenzo[b,d]furan-2-yl)ethyl)-amino)-2-((2S,6R)-2,6-dimeth-ylmorpholino)-6-oxopyrimidin-1(6H)-yl)acetamide]
< 0.1 | O=C(Cn1c(C2=CCCCC2)ncc(NCc2ccc3oc4ccccc4c3c2)c1=O)NCc1cc2cnccc2[nH]1 [Compound 241, N-((1H-pyrrolo[3,2-c]pyridin-2-yl)methyl)-2-(2-(cyclohex-1-en-1-yl)-5-((dibenzo[b,d]furan-2-ylmethyl)amino)-6-oxopyrimidin-1(6H)-yl)acet-amide]
> 1 | COc1ncc(N[C@H](C)c2ccc3oc4ccccc4c3c2)c(=O)n1CC(=O)NCc1cc2cnccc2[nH]1 [Compound 319, (R)—N-((1H-pyrrolo[3,2-c]pyridine-2-yl)methyl)-2-(5-((1-(dibenzo[b,d]furan-2-yl)ethyl)amino)-2-methoxy-6-oxopyrimidin-1(6H)-yl)acetamide]
> 1 | O=C(NCCOc1nc(-c2ccccc2)ncc1NCc1ccc2oc3ccccc3c2c1)c1cc2cnccc2[nH]1 [Compound 266, N-(2-((5-((dibenzo[b,d]furan-2-ylmethyl)amino)-2-phenyl-pyrimidin-4-yl)oxy)ethyl)-1H-pyrrolo[3,2-c]pyridine-2-carboxamide]
< 0.1 | CO[C@@H]1CO[C@H]2[C@@H]1OC[C@H]2Oc1ccc(-c2ncc(NC(=O)c3ccc(-c4ccccc4)s3)c(=O)n2CC(=O)NCc2cc3cnccc3[nH]2)cc1 [Compound 249, N-(1-(2-(((1H-pyrrolo[3,2-c]pyridine-2-yl)methyl)amino)-2-oxoethyl)-2-(4-(((3R,3aR,6R,6aR)-6-methoxyhexahydrofuro[3,2-b]furan-3-yl)oxy)phenyl)-6-oxo-1,6-dihydropyrimidin-5-yl)-5-phenylthiophene-2-carboxamide]

— US20260184707A1, “PHARMACEUTICAL COMPOUNDS FOR THE TREATMENT OF COMPLEMENT MEDIATED DISORDERS” (ALEXION PHARMACEUTICALS, INC., priority 2022, published 2026)
